Data published in the NIST ThermoML archive (doi:10.1016/j.jct.2016.06.023).

Assay: mn = molality of the nth substance listed, in mol/kg
Conditions: 101.3 kPa, Liquid, Vibrating tube method

O=C(O)CC(=O)O [propanedioic acid] + O
mass density [kg/m3]
Conditions | 313.15 K | 318.15 K | 323.15 K | 328.15 K | 333.15 K | 338.15 K | 343.15 K
m1 = 0.01001 | 992.67 | 990.67 | 988.48 | 986.12 | 983.63 | 980.99 | 978.22
m1 = 0.02001 | 993.03 | 991.04 | 988.85 | 986.5 | 984.01 | 981.37 | 978.59
m1 = 0.03 | 993.37 | 991.39 | 989.19 | 986.83 | 984.34 | 981.69 | 978.9
m1 = 0.03962 | 993.74 | 991.75 | 989.54 | 987.17 | 984.68 | 982.03 | 979.24
m1 = 0.04998 | 994.12 | 992.09 | 989.92 | 987.55 | 985.05 | 982.41 | 979.6
m1 = 0.05936 | 994.45 | 992.44 | 990.24 | 987.86 | 985.36 | 982.72 | 979.92
m1 = 0.06926 | 994.8 | 992.8 | 990.58 | 988.21 | 985.69 | 983 | 980.22
m1 = 0.07949 | 995.16 | 993.16 | 990.94 | 988.56 | 986.05 | 983.39 | 980.58
m1 = 0.08906 | 995.51 | 993.49 | 991.26 | 988.89 | 986.37 | 983.68 | 980.9
m1 = 0.09935 | 995.86 | 993.83 | 991.63 | 989.26 | 986.72 | 984.02 | 981.18
m1 = 0.1984 | 999.32 | 997.27 | 995 | 992.58 | 990.02 | 987.31 | 984.49
m1 = 0.2977 | 1002.76 | 1000.66 | 998.36 | 995.89 | 993.31 | 990.55 | 987.71
m1 = 0.404 | 1006.4 | 1004.17 | 1001.82 | 999.32 | 996.78 | 993.95 | 991.05
m1 = 0.5055 | 1009.9 | 1007.57 | 1005.17 | 1002.63 | 999.91 | 997.16 | 994.29
m1 = 0.6055 | 1013.17 | 1010.78 | 1008.36 | 1005.78 | 1003.1 | 1000.24 | 997.39
m1 = 0.6936 | 1016.02 | 1013.61 | 1011.15 | 1008.54 | 1005.81 | 1002.93 | 1000.21
m1 = 0.7926 | 1019.25 | 1016.73 | 1014.23 | 1011.64 | 1008.99 | 1006 | 1002.97
m1 = 0.891 | 1022.41 | 1019.67 | 1017.35 | 1014.68 | 1011.89 | 1008.94 | 1005.93
m1 = 0.9895 | 1025.39 | 1022.8 | 1020.22 | 1017.49 | 1014.63 | 1011.16 | 1008.49
